Assay results reported in US12723063B2, “GIPR-agonist compounds” (Eli Lilly and Company, priority 2019, dated 2026).

Columns and labels:
[1] = system: CD4+ T cells (CD8+ T cell-depleted PBMCs); assay: CD4+ T cell proliferation assay (immunogenicity assessment); assay type: cell-based, human; settings: 0.33 μM, 7 days, 10 healthy donors; positive response CDI>2.5
Experimental: Protein therapeutics that induce less than 30% positive response in the CD4+ T cell proliferation assay are associated with a low risk of immunogenicity. Briefly, to assess the propensity for a clinical immunogenic response to the compounds of Examples 1, 2, 3, 5, and 6, CD8+ T cell-depleted peripheral blood mononuclear cells (PBMCs) are prepared and labeled with carboxyfluorescein diacetate succinimidyl ester (CFSE; Invitrogen) from a cohort of 10 healthy donors with diverse human leukocyte antigen (HLA) class II haplotypes. Each donor is tested in triplicate with 2.0 mL media control, keyhole limpet hemocyanin (KLH: 0.33 μM), and the compounds of Examples 1, 2, 3, 5, and 6 (0.33 μM). Cultures are incubated for 7 days at 37° C. with 5% CO2. On day 7, samples are analyzed by flow cytometry using a BD LSR II Fortessa (Becton Dickinson; Franklin Lakes, NJ), equipped with a high throughput sampler (HTS). Data is analyzed using FlowJo® Software (FlowJo, LLC/TreeStar; Ashland, OR).
• Cell Division Index (“CDI”): proportion of divided CD4+ T cells to the total number of CD4+ T cells in stimulated versus unstimulated samples.

[2] = target: T1, human GLP-1 receptor (GLP-1R) (Homo sapiens, UniProt P43220); assay: cAMP functional assay (HTRF) in HEK293 cells in presence of 0.1% casein; assay type: cell-based; settings: HEK293 cells expressing human GLP-1R, geometric mean, read-out: hGLP1R cAMP Rel EC50 nM (SEM, n)
T1 construct: expressed in transfected cells; host or cells: HEK293
T1 sequence (P43220 24-463): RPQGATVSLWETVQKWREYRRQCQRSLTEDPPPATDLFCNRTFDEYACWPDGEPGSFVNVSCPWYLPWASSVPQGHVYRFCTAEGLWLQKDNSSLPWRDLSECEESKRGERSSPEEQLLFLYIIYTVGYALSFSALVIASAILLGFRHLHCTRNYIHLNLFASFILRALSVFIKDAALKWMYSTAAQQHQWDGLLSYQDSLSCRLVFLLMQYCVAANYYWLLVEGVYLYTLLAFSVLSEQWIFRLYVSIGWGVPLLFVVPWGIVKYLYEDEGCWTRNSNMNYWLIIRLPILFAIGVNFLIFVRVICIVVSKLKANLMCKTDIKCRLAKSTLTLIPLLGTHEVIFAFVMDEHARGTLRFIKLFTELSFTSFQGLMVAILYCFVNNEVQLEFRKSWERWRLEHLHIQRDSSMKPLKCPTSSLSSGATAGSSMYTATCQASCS

[3] = target: T2, human glucose-dependent insulinotropic peptide receptor (GIPR) (Homo sapiens, UniProt P48546); assay: as above; assay type: cell-based; settings: HEK293 cells expressing human GIPR, geometric mean, read-out: hGIPR cAMP Rel EC50 nM (SEM, n)
T2 construct: expressed in transfected cells; host or cells: HEK293
T2 sequence (P48546 22-466): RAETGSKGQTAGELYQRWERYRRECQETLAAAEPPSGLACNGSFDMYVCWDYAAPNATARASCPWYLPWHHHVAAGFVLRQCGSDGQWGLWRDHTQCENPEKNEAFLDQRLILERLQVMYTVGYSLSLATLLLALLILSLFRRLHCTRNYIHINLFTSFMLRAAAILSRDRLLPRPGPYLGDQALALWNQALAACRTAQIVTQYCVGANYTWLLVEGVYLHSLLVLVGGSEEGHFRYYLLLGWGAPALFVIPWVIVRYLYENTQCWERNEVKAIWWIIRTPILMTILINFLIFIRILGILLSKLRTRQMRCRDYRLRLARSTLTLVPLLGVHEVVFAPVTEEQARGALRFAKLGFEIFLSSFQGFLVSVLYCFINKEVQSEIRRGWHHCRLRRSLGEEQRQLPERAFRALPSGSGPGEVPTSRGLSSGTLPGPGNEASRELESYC

[4] = target: T3, human glucagon receptor (GcgR) (Homo sapiens, UniProt P47871); assay: as above; assay type: cell-based; settings: HEK293 cells expressing human GcgR, geometric mean, read-out: hGcgR cAMP Rel EC50 nM (SEM, n)
T3 construct: expressed in transfected cells; host or cells: HEK293
T3 sequence (P47871 26-477): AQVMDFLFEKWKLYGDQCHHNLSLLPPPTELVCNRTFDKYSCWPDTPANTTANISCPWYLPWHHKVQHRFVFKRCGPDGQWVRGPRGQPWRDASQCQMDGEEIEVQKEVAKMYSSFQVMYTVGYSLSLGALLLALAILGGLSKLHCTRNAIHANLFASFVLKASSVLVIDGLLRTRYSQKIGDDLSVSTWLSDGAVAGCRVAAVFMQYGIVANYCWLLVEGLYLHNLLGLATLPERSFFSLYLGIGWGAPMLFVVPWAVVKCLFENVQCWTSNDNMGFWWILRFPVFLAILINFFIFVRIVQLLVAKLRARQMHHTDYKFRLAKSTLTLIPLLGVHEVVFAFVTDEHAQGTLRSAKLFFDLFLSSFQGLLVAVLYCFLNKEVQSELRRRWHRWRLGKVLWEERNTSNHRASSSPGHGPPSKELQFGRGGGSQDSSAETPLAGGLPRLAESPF

[5] = Pharmacokinetics in male cynomolgus monkeys, single subcutaneous administration; assay type: in vivo, cynomolgus monkey; settings: 50 nmol/kg single SC, mean n = 2; for CL/F / Tmax / half-life: cynomolgus monkey, plasma
Experimental: The pharmacokinetics of select Examples are evaluated following a single subcutaneous administration of 50 nmol/kg to male cynomolgus monkeys. Blood samples are collected over 504 hours and resulting individual plasma concentrations are used to calculate pharmacokinetic parameters. Peptide plasma (K3 EDTA) concentrations are determined using a qualified LC/MS method that measured the intact mass of the compound. Each peptide and an analog as an internal standard are extracted from 100% cynomolgus monkey plasma using a protein precipitation method. Instruments are combined for LC/MS detection.

SMILES	% Donor Response (n = 10) [1] [%]	EC50 [2] [nM]	EC50 [3] [nM]	EC50 [4] [nM]	AUCInf/Dose [5] [hr*kg*nmol/L/nmol]	Cmax/Dose [5] [kg*nmol/L/nmol]	CL/F [5] [mL/day/kg]	Tmax [5] [h]	half-life [5] [h]
CC[C@H](C)[C@H](NC(=O)[C@H](CCCN)NC(=O)[C@H](CC(=O)O)NC(=O)[C@H](CC(C)C)NC(=O)[C@](C)(CC(C)C)NC(=O)[C@@H](NC(=O)[C@H](CO)NC(=O)[C@H](Cc1ccc(O)cc1)NC(=O)[C@H](CC(=O)O)NC(=O)[C@H](CO)NC(=O)[C@@H](NC(=O)[C@H](Cc1ccccc1)NC(=O)[C@@H](NC(=O)CNC(=O)[C@H](CCC(=O)O)NC(=O)C(C)(C)NC(=O)[C@@H](N)Cc1ccc(O)cc1)[C@@H](C)O)[C@@H](C)CC)[C@@H](C)CC)C(=O)N[C@@H](Cc1c[nH]cn1)C(=O)N[C@@H](CCC(N)=O)C(=O)NC(C)(C)C(=O)N[C@@H](CC(=O)O)C(=O)N[C@@H](Cc1ccccc1)C(=O)N[C@H](C(=O)N[C@@H](CCC(=O)O)C(=O)N[C@@H](Cc1ccc(O)cc1)C(=O)N[C@@H](CCCCNC(=O)COCCOCCNC(=O)COCCOCCNC(=O)CC[C@H](NC(=O)CCCCCCCCCCCCCCCCCCC(=O)O)C(=O)O)C(=O)N[C@@H](CC(C)C)C(=O)N[C@@H](CCC(=O)O)C(=O)NCC(=O)NCC(=O)N1CCC[C@H]1C(=O)N[C@@H](CO)C(=O)N[C@@H](CO)C(=O)NCC(=O)N[C@@H](C)C(=O)N1CCC[C@H]1C(=O)N1CCC[C@H]1C(=O)N1CCC[C@H]1C(=O)N[C@@H](CO)C(N)=O)C(C)C [Example 6]	0	> 5000	0.0176	> 5000	1382	7.83	18.5	6	129
CC[C@H](C)[C@H](NC(=O)[C@H](CO)NC(=O)[C@H](Cc1ccc(O)cc1)NC(=O)[C@H](CC(=O)O)NC(=O)[C@H](CO)NC(=O)[C@@H](NC(=O)[C@H](Cc1ccccc1)NC(=O)[C@@H](NC(=O)CNC(=O)[C@H](CCC(=O)O)NC(=O)[C@@H](C)NC(=O)[C@@H](N)Cc1ccc(O)cc1)[C@@H](C)O)[C@@H](C)CC)C(=O)N[C@@H](CC(C)C)C(=O)N[C@@H](CC(C)C)C(=O)N[C@@H](CC(=O)O)C(=O)N[C@@H](CCCCN)C(=O)N[C@@H](CCCCNC(=O)COCCOCCNC(=O)COCCOCCNC(=O)CC[C@H](NC(=O)CCCCCCCCCCCCCCCCCCC(=O)O)C(=O)O)C(=O)N[C@@H](C)C(=O)N[C@@H](CCC(N)=O)C(=O)NC(C)(C)C(=O)N[C@@H](CC(=O)O)C(=O)N[C@@H](Cc1ccccc1)C(=O)N[C@H](C(=O)N[C@@H](CC(N)=O)C(=O)N[C@@H](Cc1c[nH]c2ccccc12)C(=O)N[C@@H](CC(C)C)C(=O)N[C@@H](CC(C)C)C(=O)N[C@@H](C)C(=O)N[C@@H](CCC(N)=O)C(=O)NCC(=O)N1CCC[C@H]1C(=O)N[C@@H](CO)C(=O)N[C@@H](CO)C(=O)NCC(=O)N[C@@H](C)C(=O)N1CCC[C@H]1C(=O)N1CCC[C@H]1C(=O)N1CCC[C@H]1C(=O)N[C@@H](CO)C(N)=O)C(C)C [Example 1]	0	> 5000	0.0476	575	786	7.20	30.5	24	71.1
CC[C@H](C)[C@H](NC(=O)[C@H](CO)NC(=O)[C@H](Cc1ccc(O)cc1)NC(=O)[C@H](CC(=O)O)NC(=O)[C@H](CO)NC(=O)[C@@H](NC(=O)[C@H](Cc1ccccc1)NC(=O)[C@@H](NC(=O)CNC(=O)[C@H](CCC(=O)O)NC(=O)[C@@H](C)NC(=O)[C@@H](N)Cc1ccc(O)cc1)[C@@H](C)O)[C@@H](C)CC)C(=O)N[C@@H](CC(C)C)C(=O)N[C@@H](CC(C)C)C(=O)N[C@@H](CC(=O)O)C(=O)N[C@@H](CCCCN)C(=O)N[C@@H](CCCCNC(=O)COCCOCCNC(=O)COCCOCCNC(=O)CC[C@H](NC(=O)CCCCCCCCCCCCCCCCC(=O)O)C(=O)O)C(=O)N[C@@H](C)C(=O)N[C@@H](CCC(N)=O)C(=O)NC(C)(C)C(=O)N[C@@H](CC(=O)O)C(=O)N[C@@H](Cc1ccccc1)C(=O)N[C@H](C(=O)N[C@@H](CC(N)=O)C(=O)N[C@@H](Cc1c[nH]c2ccccc12)C(=O)N[C@@H](CC(C)C)C(=O)N[C@@H](CC(C)C)C(=O)N[C@@H](C)C(=O)N[C@@H](CCC(N)=O)C(=O)NCC(=O)N1CCC[C@H]1C(=O)N[C@@H](CO)C(=O)N[C@@H](CO)C(=O)NCC(=O)N[C@@H](C)C(=O)N1CCC[C@H]1C(=O)N1CCC[C@H]1C(=O)N1CCC[C@H]1C(=O)N[C@@H](CO)C(N)=O)C(C)C [Example 2]	10	> 5000	0.0123	608	624	6.92	38.6	6	51.8
CC[C@H](C)[C@H](NC(=O)[C@H](CCCCN)NC(=O)[C@H](CC(=O)O)NC(=O)[C@H](CC(C)C)NC(=O)[C@](C)(CC(C)C)NC(=O)[C@@H](NC(=O)[C@H](CO)NC(=O)[C@H](Cc1ccc(O)cc1)NC(=O)[C@H](CC(=O)O)NC(=O)[C@H](CO)NC(=O)[C@@H](NC(=O)[C@H](Cc1ccccc1)NC(=O)[C@@H](NC(=O)CNC(=O)[C@H](CCC(=O)O)NC(=O)C(C)(C)NC(=O)[C@@H](N)Cc1ccc(O)cc1)[C@@H](C)O)[C@@H](C)CC)[C@@H](C)CC)C(=O)N[C@@H](Cc1c[nH]cn1)C(=O)N[C@@H](CCC(N)=O)C(=O)NC(C)(C)C(=O)N[C@@H](CC(=O)O)C(=O)N[C@@H](Cc1ccccc1)C(=O)N[C@H](C(=O)N[C@@H](CCC(=O)O)C(=O)N[C@@H](Cc1ccc(O)cc1)C(=O)N[C@@H](CCCCNC(=O)COCCOCCNC(=O)COCCOCCNC(=O)CC[C@H](NC(=O)CCCCCCCCCCCCCCCCCCC(=O)O)C(=O)O)C(=O)N[C@@H](CC(C)C)C(=O)N[C@@H](CCC(=O)O)C(=O)NCC(=O)NCC(=O)N1CCC[C@H]1C(=O)N[C@@H](CO)C(=O)N[C@@H](CO)C(=O)NCC(=O)N[C@@H](C)C(=O)N1CCC[C@H]1C(=O)N1CCC[C@H]1C(=O)N1CCC[C@H]1C(=O)N[C@@H](CO)C(N)=O)C(C)C [Example 5]	0	> 5000	0.0148	> 5000	2262	12.0	10.6	120	128
CC[C@H](C)[C@H](NC(=O)[C@H](CCCN)NC(=O)[C@H](CC(=O)O)NC(=O)[C@H](CC(C)C)NC(=O)[C@](C)(CC(C)C)NC(=O)[C@@H](NC(=O)[C@H](CO)NC(=O)[C@H](Cc1ccc(O)cc1)NC(=O)[C@H](CC(=O)O)NC(=O)[C@H](CO)NC(=O)[C@@H](NC(=O)[C@H](Cc1ccccc1)NC(=O)[C@@H](NC(=O)CNC(=O)[C@H](CCC(=O)O)NC(=O)C(C)(C)NC(=O)[C@@H](N)Cc1ccc(O)cc1)[C@@H](C)O)[C@@H](C)CC)[C@@H](C)CC)C(=O)N[C@@H](Cc1c[nH]cn1)C(=O)N[C@@H](CCC(N)=O)C(=O)NC(C)(C)C(=O)N[C@@H](CCC(=O)O)C(=O)N[C@@H](Cc1ccccc1)C(=O)N[C@H](C(=O)N[C@H](CCC(=O)O)C(=O)N[C@@H](Cc1ccc(O)cc1)C(=O)N[C@@H](CCCCNC(=O)COCCOCCNC(=O)COCCOCCNC(=O)CC[C@H](NC(=O)CCCCCCCCCCCCCCCCC(=O)O)C(=O)O)C(=O)N[C@@H](CC(C)C)C(=O)N[C@@H](CCC(=O)O)C(=O)NCC(=O)NCC(=O)N1CCC[C@H]1C(=O)N[C@@H](CO)C(=O)N[C@@H](CO)C(=O)NCC(=O)N[C@@H](C)C(=O)N1CCC[C@H]1C(=O)N1CCC[C@H]1C(=O)N1CCC[C@H]1C(=O)N[C@@H](CO)C(N)=O)C(C)C [Example 7]	–	> 5000	0.0219	> 5000	1603	10.1	15.1	9	109
